Laboratory results: ChEMBL document CHEMBL5579852, “Promising anti-proliferative indolic benzenesulfonamides alter mechanisms with sulfonamide nitrogen substituents” (Eur J Med Chem, 2024)
Active and inactive are the calls of the source. No cut-off for these calls is given here.

What was measured:
MES-SA [1] = experiment: Induction of apoptosis in human MES-SA cells assessed as necrotic cells at 100 nM incubated for 24 hrs by live/dead orange and TUNEL staining based flow cytometry analysis relative to control; assay type: functional
HeLa [2] = experiment: Antiproliferative activity against human HeLa cells assessed as reduction in cell viability incubated for 72 hrs by MTT assay; assay type: functional, cell-based
MCF7 = experiment: Antiproliferative activity against human MCF7 cells assessed as reduction in cell viability incubated for 72 hrs by CelltiterGlo luminescent assay; assay type: functional, cell-based; settings: MCF7, 72 h
BT-474 = experiment: Antiproliferative activity against human BT-474 cells assessed as reduction in cell viability incubated for 72 hrs by CelltiterGlo luminescent assay; settings: BT-474, 72 h
MES-SA [3] = experiment: Antiproliferative activity against human MES-SA cells assessed as reduction in cell viability incubated for 72 hrs by CelltiterGlo luminescent assay
HT-1080 = experiment: Antiproliferative activity against human HT-1080 cells assessed as reduction in cell viability incubated for 72 hrs by CelltiterGlo luminescent assay; settings: HT-1080, 72 h
[4] = Antiproliferative activity against human Melmet 5 cells assessed as reduction in cell viability incubated for 72 hrs by CelltiterGlo luminescent assay; settings: Melmet 5, 72 h
A-375 = experiment: Antiproliferative activity against human A-375 cells assessed as reduction in cell viability incubated for 72 hrs by CelltiterGlo luminescent assay; settings: A-375, 72 h
[5] = Antiproliferative activity against human WM1366 cells assessed as reduction in cell viability incubated for 72 hrs by CelltiterGlo luminescent assay; settings: WM1366, 72 h
CAKI-1 = experiment: Antiproliferative activity against human CAKI-1 cells assessed as reduction in cell viability incubated for 72 hrs by CelltiterGlo luminescent assay; settings: CAKI-1, 72 h
[6] = Antiproliferative activity against human Hermes 3C cells assessed as reduction in cell viability incubated for 72 hrs by CelltiterGlo luminescent assay; assay type: toxicity, cell-based
[7] = Antiproliferative activity against human HEK293 cells assessed as reduction in cell viability incubated for 72 hrs by CelltiterGlo luminescent assay; assay type: toxicity, cell-based
[8] = Antiproliferative activity against human RPE-1 cells assessed as reduction in cell viability incubated for 72 hrs by CelltiterGlo luminescent assay; assay type: toxicity, cell-based; settings: RPE-1 cells (TERT-RPE1)
HeLa [9] = experiment: Antiproliferative activity against human HeLa cells assessed as reduction in cell viability incubated for 72 hrs by CelltiterGlo luminescent assay; assay type: functional, cell-based
HeLa [10] = experiment: Antiproliferative activity against human HeLa cells assessed as inhibition of cell growth incubated for 72 hrs in absence of verapamil by MTT assay; assay type: functional, cell-based
HeLa [11] = experiment: Antiproliferative activity against human HeLa cells assessed as inhibition of cell growth incubated for 72 hrs in presence of verapamil by MTT assay; assay type: functional, cell-based
MES-SA [12] = experiment: Cell cycle distribution in human MES-SA cells assessed as accumulation of cells in G1 phase cells at 100 nM incubated for 24 hrs by Hoechst 33258 staining based flow cytometry (reference value: 60%); assay type: functional
MES-SA [13] = experiment: Cell cycle distribution in human MES-SA cells assessed as accumulation of cells in G2 phase cells at 100 nM incubated for 24 hrs by Hoechst 33258 staining based flow cytometry (reference value: 12 %); assay type: functional
MES-SA [14] = experiment: Cell cycle distribution in human MES-SA cells assessed as accumulation of cells in M phase cells at 100 nM incubated for 24 hrs by Hoechst 33258 staining based flow cytometry (reference value: 1.3 %); assay type: functional
MES-SA [15] = experiment: Cell cycle distribution in human MES-SA cells assessed as accumulation of cells in S phase cells at 100 nM incubated for 24 hrs by Hoechst 33258 staining based flow cytometry (reference value: 27 %); assay type: functional
MES-SA [16] = experiment: Induction of apoptosis in human MES-SA cells assessed as late apoptotic cells at 100 nM incubated for 24 hrs by live/dead orange and TUNEL staining based flow cytometry analysis relative to control; assay type: functional
MES-SA [17] = experiment: Induction of apoptosis in human MES-SA cells assessed as apoptotic cells at 100 nM incubated for 24 hrs by live/dead orange and TUNEL staining based flow cytometry analysis relative to control; assay type: functional
MES-SA [18] = experiment: Induction of apoptosis in human MES-SA cells assessed as live cells at 100 nM incubated for 24 hrs by live/dead orange and TUNEL staining based flow cytometry analysis relative to control; assay type: functional
MES-SA [19] = experiment: Induction of apoptosis in human MES-SA cells assessed as increase in caspase 3/7 activation at 100 nM by live-cell imaging based fluorescence assay; assay type: functional; settings: time 3.0 day, TDE = time-dependent effect
Tubulin (Homo sapiens) = Tubulin (Homo sapiens) (UniProt P68371+Q9H4B7+P0DPH7+P68366+Q13509+Q71U36+P04350+Q3ZCM7+P07437+P68363+Q9BQE3+Q6PEY2+Q13885+Q9BVA1+Q9BUF5); experiment: Inhibition of tubulin polymerization in human MES-SA cells assessed as appearance of spherical shaped cells at 10 nM incubated for 24 hrs by DAPI staining based confocal microscopy analysis; assay type: cell-based
MES-SA [20] = experiment: Cell cycle distribution in human MES-SA cells assessed as accumulation of cells in G2/M phase cells at 100 nM incubated for 24 hrs by Hoechst 33258 staining based flow cytometry (reference value: 13.3 %); assay type: functional
MDA-MB-468 = experiment: cells; settings: Homo sapiens, MDA-MB-468, 72 h
Description: Antiproliferative activity against human MDA-MB-468 cells assessed as reduction in cell viability incubated for 72 hrs by CelltiterGlo luminescent assay

cells = settings: Homo sapiens, MDA-MB-468, 72 h
MES-SA [21] = experiment: Induction of apoptosis in human MES-SA cells assessed as caspase 3/7 activation at 1 uM incubated for 24 hrs by live-cell imaging based fluorescence assay; assay type: functional
MES-SA [22] = experiment: Induction of apoptosis in human MES-SA cells assessed as caspase 3/7 activation at 1 uM incubated for 48 to 72 hrs by live-cell imaging based fluorescence assay; assay type: functional; settings: time lower […], time upper 72.0 hrs
MES-SA [23] = experiment: Induction of apoptosis in human MES-SA cells assessed as dead cells at 100 nM incubated for 24 hrs by live/dead orange and TUNEL staining based flow cytometry analysis relative to control; assay type: functional

Row | SMILES | Activity (MES-SA [1]) [%] | IC50 (HeLa [2]) [nM] | IC50 (MCF7) [nM] | IC50 (BT-474) [nM] | IC50 (MES-SA [3]) [nM] | IC50 (HT-1080) [nM] | IC50 [4] [nM] | IC50 (A-375) [nM] | IC50 [5] [nM] | IC50 (CAKI-1) [nM] | IC50 at 72 h [6] [nM] | IC50 at 72 h [7] [nM] | IC50 at 72 h [8] [nM] | IC50 (HeLa [9]) [nM] | IC50 (HeLa [10]) [nM] | IC50 (HeLa [11]) [nM] | Activity (MES-SA [12]) [%] | Activity (MES-SA [13]) [%] | Activity (MES-SA [14]) [%] | Activity (MES-SA [15]) [%] | also measured
1 | COc1cc(S(=O)(=O)Nc2ccc3c(ccn3C)c2)cc(OC)c1OC | 4.7 | 5.3 | 1.4 | 46.1 | 5.6 | 5.6 | 1.4 | 6.4 | 7.1 | 4 | 61 | 4.9 | 5.7 | 3.9 | 22.9 | 17.9 | 4 | 29 | 56.8 | 6 | Activity (MES-SA [16]): 0.8%; Activity (MES-SA [17]): 4.2%; Activity (MES-SA [18]): 90.3%; Activity (MES-SA [19]): Tde; inhibition (Tubulin (Homo sapiens)): inactive; Activity (MES-SA [20]): 83.6%; IC50 (MDA-MB-468): 4.5 nM; IC50 (cells): 29.6 nM
2 | CN[C@@H]1C[C@H]2O[C@@](C)([C@@H]1OC)n1c3ccccc3c3c4c(c5c6ccccc6n2c5c31)C(=O)NC4 | – | – | – | – | – | – | – | – | – | – | – | – | – | – | – | – | – | – | – | – | Activity (MES-SA [21]): Active; Activity (MES-SA [22]): inactive
3 | COc1cc(S(=O)(=O)N(CC#N)c2ccc3c(ccn3C)c2)cc(OC)c1OC | 4.5 | 1.7 | 13.7 | 68.3 | 8.9 | 9.9 | 8.9 | 22.1 | 52.8 | 56.2 | 44.7 | 23.4 | 80.4 | 11 | 22.3 | 16.3 | 4 | 35 | 48.6 | 6 | Activity (MES-SA [16]): 0.5%; Activity (MES-SA [17]): 3.1%; Activity (MES-SA [18]): 92%; Activity (MES-SA [23]): 8%; Activity (MES-SA [19]): Tde; inhibition (Tubulin (Homo sapiens)): inactive; Activity (MES-SA [20]): 83.6%; IC50 (MDA-MB-468): 13 nM; IC50 (cells): 14.8 nM
